Laboratory results: ChEMBL document CHEMBL1201862, “PubChem BioAssay data set” (2004)
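96-well plates; 48 h exposure; 5 concentrations. Endpoints by linear interpolation between flanking doses. Not reached: highest tested concentration assigned. Abbreviation: GI50, concentration required for 50% inhibition of growth.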 Active and inactive are the calls of the source. Cut-off read from the data, not from the text of the source: active = GI50 up to about 1.1 µM and inactive = higher.

Experiments:
Experiment in all cases: growth of human tumour cells (NCI), 48 h
SN12C = test system: SN12C
UACC-257 = test system: UACC-257
EKVX = test system: EKVX
PC-3 = test system: PC-3
MDA-MB-231 = test system: MDA-MB-231
RXF 393 = test system: RXF 393
OVCAR-3 = test system: OVCAR-3
UO-31 = test system: UO-31
SNB-75 = test system: SNB-75
A498 = test system: A498
SNB-19 = test system: SNB-19
SR = test system: SR
HOP-92 = test system: HOP-92
HT-29 = test system: HT-29
HOP-62 = test system: HOP-62
COLO 205 = test system: COLO 205
HL-60 = test system: HL-60
TK-10 = test system: TK-10
NCI-H226 = test system: NCI-H226
U-251 = test system: U-251
SK-OV-3 = test system: SK-OV-3
Hs-578T = test system: Hs-578T
NCI/ADR-RES = test system: NCI/ADR-RES
CAKI-1 = test system: CAKI-1
M14 = test system: M14
UACC-62 = test system: UACC-62
MDA-N = test system: MDA-N
KM12 = test system: KM12
SK-MEL-2 = test system: SK-MEL-2
IGROV-1 = test system: IGROV-1
A549 = test system: A549
OVCAR-5 = test system: OVCAR-5
NCI-H23 = test system: NCI-H23
HCT-15 = test system: HCT-15
786-0 = test system: 786-0
OVCAR-8 = test system: OVCAR-8
K562 = test system: K562
ACHN = test system: ACHN
SF-295 = test system: SF-295
NCI-H460 = test system: NCI-H460
SW-620 = test system: SW-620
BT-549 = test system: BT-549
SF-539 = test system: SF-539
MOLT-4 = test system: MOLT-4
CCRF-CEM = test system: CCRF-CEM
HCC 2998 = test system: HCC 2998
Malme-3M = test system: Malme-3M
SK-MEL-5 = test system: SK-MEL-5
HCT-116 = test system: HCT-116
OVCAR-4 = test system: OVCAR-4
MCF7 = test system: MCF7
LOX IMVI = test system: LOX IMVI
SK-MEL-28 = test system: SK-MEL-28

With `CC1(C)N(OC2CCCCO2)C(c2ccccc2)C(c2ccccc2)=[N+]1[O-]` (stereo not drawn) the GI50 (SN12C) was > 100 µM (inactive), the GI50 (UACC-257) was > 100 µM (inactive) and the GI50 (EKVX) was > 100 µM (inactive). For the same molecule, the GI50 (PC-3) was 52.2 µM (inactive), the GI50 (MDA-MB-231) was > 100 µM (inactive) and the GI50 (RXF 393) was 47.5 µM (inactive). For the same molecule, the GI50 (OVCAR-3) was 54.3 µM (inactive), the GI50 (UO-31) was 59.8 µM (inactive) and the GI50 (SNB-75) was 20.1 µM (inactive). For the same molecule, the GI50 (A498) was > 100 µM (inactive), the GI50 (SNB-19) was > 100 µM (inactive) and the GI50 (SR) was 27 µM (inactive). The GI50 (HOP-92) was > 100 µM (inactive), the GI50 (HT-29) was > 100 µM (inactive) and the GI50 (HOP-62) was > 100 µM (inactive). The GI50 (COLO 205) was > 100 µM (inactive), the GI50 (HL-60) was 8.93 µM (inactive) and the GI50 (TK-10) was > 100 µM (inactive). For the same molecule, the GI50 (NCI-H226) was > 100 µM (inactive), the GI50 (U-251) was > 100 µM (inactive) and the GI50 (SK-OV-3) was > 100 µM (inactive). The GI50 (Hs-578T) was 94 µM (inactive), the GI50 (NCI/ADR-RES) was 49.2 µM (inactive) and the GI50 (CAKI-1) was > 100 µM (inactive). The GI50 (M14) was 64 µM (inactive), the GI50 (UACC-62) was > 100 µM (inactive) and the GI50 (MDA-N) was > 100 µM (inactive). For the same molecule, the GI50 (KM12) was 93.5 µM (inactive), the GI50 (SK-MEL-2) was 51.1 µM (inactive) and the GI50 (IGROV-1) was > 100 µM (inactive). For the same molecule, the GI50 (A549) was 58.6 µM (inactive), the GI50 (OVCAR-5) was > 100 µM (inactive) and the GI50 (NCI-H23) was 49.9 µM (inactive). For the same molecule, the GI50 (HCT-15) was > 100 µM, the GI50 (786-0) was > 100 µM (inactive) and the GI50 (OVCAR-8) was 32.1 µM (inactive). For the same molecule, the GI50 (K562) was 58.9 µM (inactive), the GI50 (ACHN) was > 100 µM (inactive) and the GI50 (SF-295) was 41 µM (inactive). The GI50 (NCI-H460) was 66.7 µM (inactive), the GI50 (SW-620) was > 100 µM (inactive) and the GI50 (BT-549) was > 100 µM (inactive). The GI50 (SF-539) was > 100 µM (inactive), the GI50 (MOLT-4) was 30 µM (inactive) and the GI50 (CCRF-CEM) was 60.5 µM (inactive). For the same molecule, the GI50 (HCC 2998) was > 100 µM (inactive), the GI50 (Malme-3M) was > 100 µM (inactive) and the GI50 (SK-MEL-5) was 52.1 µM (inactive). For the same molecule, the GI50 (HCT-116) was 60.3 µM (inactive), the GI50 (OVCAR-4) was > 100 µM (inactive) and the GI50 (MCF7) was > 100 µM (inactive). For the same molecule, the GI50 (LOX IMVI) was > 100 µM (inactive) and the GI50 (SK-MEL-28) was > 100 µM (inactive).
